According to patent US20220177485A1, “CAMPTOTHECIN DERIVATIVE, PREPARATION METHOD THEREFOR AND APPLICATION THEREOF” (MARINE BIOMEDICAL RESEARCH INSTITUTE OF QINGDAO CO., LTD., priority 2018, published 2022):
Read-outs that look alike come from different tables or passages of the source.

What was measured:
[1] = target: heat shock protein (HSP90); assay: macromolecular interaction on chip, HSP90; type: binding; conditions: compound fixed on the chip; HSP90 100 nM
Procedure: (§1) The experimental scheme: 1. Fixed the compounds on the chip:
(§2) Mobile phase were EGF (1 μM), FGF (1 μM), HSP90 (100 nM), FKBP12 (100 nM).
(§3) Detection whether small molecule compounds combined with the provided protein of heat shock protein (HSP90), epidermal growth factor (EGF) and fibroblast growth factor (FGF); and provide relevant data of combined dynamics.

[2] = target: T1, epidermal growth factor (EGF) (Homo sapiens, UniProt P01133); assay: macromolecular interaction on chip, EGF; type: binding; conditions: for KD EGF: compound fixed on the chip, EGF 1 μM
T1 construct: epidermal growth factor (EGF)
T1 sequence (P01133 971-1023 limits assumed, species assumed): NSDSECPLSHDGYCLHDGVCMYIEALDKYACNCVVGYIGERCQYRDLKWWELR
Procedure: as §1, §2, §3

[3] = target: fibroblast growth factor (FGF); assay: macromolecular interaction on chip, FGF; type: binding; conditions: compound fixed on the chip; FGF 1 μM
Procedure: as §1, §2, §3

[4] = test system: A549 cell non-small cell lung cancer cell line; assay: growth inhibition of tumor cells in vitro, A549; type: cell-based, human
Description: (§4) We tested compounds target a variety of tumor cell for the growth inhibition to show its antitumor activity by using the method of the field technicians known. Chooses the tumor cell lines include: A549 cell non-small cell lung cancer cell line (people), K562 cells (human chronic myeloid leukemia cells), NCI-H1975 cells (non-small cell lung adenocarcinoma cancer cell), MDA-MB-231 cells (human breast cancer cells) and HCT-116 cells (human colon cancer cells).

[5] = test system: K562 cells (human chronic myeloid leukemia cells); assay: growth inhibition of tumor cells in vitro, K562; type: cell-based
Description: as §4

[6] = Homo sapiens, A549, A549 cell line, read-out: IC50 A549
[7] = K562 cell line, read-out: IC50 K562
[8] = Homo sapiens, A549, read-out: IC50 A549, A549 cell line

| Structure (SMILES) | KD HSP90 [1] | KD EGF [2] | KD FGF [3] | melting point [°C] | IC50 [4, 6] [nM] | IC50 [5, 7] [nM] | other results |
| --- | --- | --- | --- | --- | --- | --- | --- |
| CC[C@@]1(O)C(=O)OCc2c1cc1n(c2=O)Cc2c-1nc1cc3c(cc1c2/C=C/c1cccc(F)c1)OCO3 [Compound 4, 20(S)-7-(3-fluorostyryl)-10,11-methylenedioxy-camptothecin] | No combination | No combination | No combination | > 250 | – | – | – |
| CC[C@@]1(O)C(=O)OCc2c1cc1n(c2=O)Cc2c-1nc1cc3c(cc1c2CCc1ccc(N2CCCC2)cc1)OCO3 [Compound 9, 20(S)-7-(4-(pyrrolidin-1-yl)phenethyl)-10,11-methylenedioxy-camptothecin] | No combination | No combination | No combination | 205 to 207 | 1522 ± 10.5 | 1366 ± 12.5 | – |
| CC[C@@]1(O)C(=O)OCc2c1cc1n(c2=O)Cc2c-1nc1cc3c(cc1c2-c1ccc(F)cc1)OCO3 [Compound 32] | No combination | No combination | No combination | – | – | 963 ± 7.61 | – |
| CC[C@@]1(O)C(=O)OCc2c1cc1n(c2=O)Cc2c-1nc1cc3c(cc1c2CCc1ccccc1N1CCCC1)OCO3 [Compound 16, 20(S)-7-(2-(pyrrolidin-1-yl)phenethyl)-10,11-methylenedioxy-camptothecin] | – | – | – | 139 to 140 | – | 115 ± 7.6 | – |
| CC[C@@]1(O)C(=O)OCc2c1cc1n(c2=O)Cc2c-1nc1cc3c(cc1c2/C=C/c1cc(F)c(F)c(F)c1)OCO3 [Compound 7] | No combination | can combine | can combine | – | 1904 ± 8.64 | 1772 ± 9.68 | Kd [2]: 51.5 nM; Kd [3]: 53.6 nM |
| CC[C@@]1(O)C(=O)OCc2c1cc1n(c2=O)Cc2c-1nc1cc3c(cc1c2-c1ccccc1F)OCO3 [Compound 41] | – | – | – | – | – | – | IC50 ([5]; K562, read-out: IC50 K562): 1037 ± 10.2 nM |
| CC[C@@]1(O)C(=O)OCc2c1cc1n(c2=O)Cc2c-1nc1cc3c(cc1c2CCc1ccc(N2CCOCC2)c(F)c1)OCO3 [Compound 10, 20(S)-7-(3-fluoro-4-(4-morpholino)phenethyl)-10,11-methylenedioxy-camptothecin] | No combination | No combination | No combination | > 250 | 1223 ± 8.75 | 564 ± 9.85 | – |
| CC[C@@]1(O)C(=O)OCc2c1cc1n(c2=O)Cc2c-1nc1cc3c(cc1c2CCN1CCCCC1)OCO3 [Compound 52, 20(S)-7-(2-(piperidin-1-yl)ethyl)-10,11-methylenedioxy-camptothecin] | No combination | No combination | can combine | – | – | – | Kd [3]: 7.15 nM |
| CC[C@@]1(O)C(=O)OCc2c1cc1n(c2=O)Cc2c-1nc1cc3c(cc1c2/C=C/C=C/c1ccccc1)OCO3 [Compound 1, 20(S)-7-(styrene-butadiene-yl)-10,11-methylenedioxy-camptothecin] | No combination | No combination | No combination | 206 to 214 | 763 ± 5.05 | 1652 ± 10.6 | – |
| CC[C@@]1(O)C(=O)OCc2c1cc1n(c2=O)Cc2c-1nc1cc3c(cc1c2CCc1ccc(N2CCOCC2)cc1)OCO3 [Compound 8, 20(S)-7-(4-(4-morpholino)phenethyl)-10,11-methylenedioxy-camptothecin] | No combination | No combination | No combination | – | – | – | – |
| CC[C@@]1(O)C(=O)OCc2c1cc1n(c2=O)Cc2c-1nc1cc3c(cc1c2-c1cc(C(F)(F)F)cc(C(F)(F)F)c1)OCO3 [Compound 33] | – | – | – | – | 174 ± 8.62 | 702 ± 8.87 | – |
| CC[C@@]1(O)C(=O)OCc2c1cc1n(c2=O)Cc2c-1nc1cc3c(cc1c2CCc1ccc(N2CCSCC2)cc1)OCO3 [Compound 20, 20(S)-7-(4-(4-thiomorpholino)phenethyl)-10,11-methylenedioxy-camptothecin] | – | – | – | 154 to 156 | – | 145 ± 4.35 | – |
| CC[C@@]1(O)C(=O)OCc2c1cc1n(c2=O)Cc2c-1nc1cc3c(cc1c2-c1ccc(F)c(F)c1)OCO3 [Compound 42] | – | – | – | – | – | 181 ± 8.55 | – |
| CC[C@@]1(O)C(=O)OCc2c1cc1n(c2=O)Cc2c-1nc1cc3c(cc1c2-c1ccc(C(C)(C)C)cc1)OCO3 [Compound 37] | – | – | – | – | – | – | IC50 [4, 8]: 387 ± 3.75 nM; IC50 ([5]; K562, read-out: IC50 K562): 785 ± 9.23 nM |
| CC[C@@]1(O)C(=O)OCc2c1cc1n(c2=O)Cc2c-1nc1cc3c(cc1c2CCc1cccc(N2CCOCC2)c1)OCO3 [Compound 14] | No combination | No combination | No combination | 163 to 165 | 10 to 50 | 1949 ± 15.7 | IC50 ([4]; A549 cell line, read-out: IC50 A549): 19 ± 3.47 nM |
| CC[C@@]1(O)C(=O)OCc2c1cc1n(c2=O)Cc2c-1nc1cc3c(cc1c2N1CCOCC1)OCO3 [Compound 43, 20(S)-7-morpholino-10,11-methylenedioxy-camptothecin] | – | – | – | > 250 | – | – | IC50 ([5]; K562, read-out: IC50 K562): 837 ± 9.44 nM |
| CC[C@@]1(O)C(=O)OCc2c1cc1n(c2=O)Cc2c-1nc1cc3c(cc1c2CCc1ccc(N2CCCCC2)cc1)OCO3 | – | – | – | > 250 | – | – | – |
| CC[C@@]1(O)C(=O)OCc2c1cc1n(c2=O)Cc2c-1nc1cc3c(cc1c2/C=C/c1ccccc1F)OCO3 [Compound 5, 20(S)-7-(2-fluorostyryl)-10,11-methylenedioxy-camptothecin] | No combination | No combination | No combination | > 250 | – | – | – |
| CC[C@@]1(O)C(=O)OCc2c1cc1n(c2=O)Cc2c-1nc1cc3c(cc1c2/C=C/c1ccc(F)c(F)c1)OCO3 [Compound 6] | No combination | No combination | can combine | – | 530 ± 7.6 | 757 ± 8.62 | Kd [3]: 8.99 nM |
| CC[C@@]1(O)C(=O)OCc2c1cc1n(c2=O)Cc2c-1nc1cc3c(cc1c2-c1ccc(F)cc1F)OCO3 [Compound 40] | – | – | – | – | – | – | IC50 [4, 8]: 836 ± 8.69 nM; IC50 ([5]; K562, read-out: IC50 K562): 1168 ± 9.69 nM |
| CC[C@@]1(O)C(=O)OCc2c1cc1n(c2=O)Cc2c-1nc1cc3c(cc1c2CCc1cc(F)c(N2CCOCC2)c(F)c1)OCO3 [Compound 18, 20(S)-7-(3,5-difluoro-4-(4-morpholino)phenethyl)-10,11-methylenedioxy-camptothecin] | – | – | – | 246 to 247 | – | 489 ± 6.65 | – |
| CC[C@@]1(O)C(=O)OCc2c1cc1n(c2=O)Cc2c-1nc1cc3c(cc1c2/C=C/c1ccc(F)cc1)OCO3 [Compound 3, 20(S)-7-(4-fluorostyryl)-10,11-methylenedioxy-camptothecin] | No combination | can combine | No combination | > 250 | – | 66 ± 3.65 | Kd [2]: 5.3 nM |
| CC[C@@]1(O)C(=O)OCc2c1cc1n(c2=O)Cc2c-1nc1cc3c(cc1c2-c1ccccc1)OCO3 [Compound 36] | – | – | – | – | 422 ± 10.3 | 1327 ± 8.96 | – |
| CC[C@@]1(O)C(=O)OCc2c1cc1n(c2=O)Cc2c-1nc1cc3c(cc1c2CCc1cc(F)c(N2CCCC2)c(F)c1)OCO3 | – | – | – | > 250 | – | – | – |
| CC[C@@]1(O)C(=O)OCc2c1cc1n(c2=O)Cc2c-1nc1cc3c(cc1c2/C=C/C=C/c1ccc(OC)cc1)OCO3 [Compound 2] | No combination | No combination | No combination | – | 1268 ± 4.65 | 2693 ± 9.63 | – |
| CC[C@@]1(O)C(=O)OCc2c1cc1n(c2=O)Cc2c-1nc1cc3c(cc1c2-c1ccc2c(c1)OCO2)OCO3 [Compound 38] | – | – | – | – | – | – | IC50 [4, 8]: 282 ± 7.77 nM; IC50 ([5]; K562, read-out: IC50 K562): 202 ± 7.32 nM |
